Columns and labels:
Experiment in all cases: cells
[1] = test system: T47D; type: functional; conditions: Homo sapiens, time 48 hrs
Description: Cytostatic activity against human T47D cells assessed as total growth inhibition measured after 48 hrs by sulforhodamine B assay

[2] = test system: NCI/ADR-RES; type: functional; conditions: Homo sapiens, time 48 hrs
Description: Growth inhibition of human NCI/ADR-RES cells measured after 48 hrs by sulforhodamine B assay

[3] = test system: MDA-MB-468; type: functional; conditions: Homo sapiens, time 48 hrs
Description: Cytostatic activity against human MDA-MB-468 cells assessed as total growth inhibition measured after 48 hrs by sulforhodamine B assay

[4] = test system: SK-MEL-5; type: functional; conditions: Homo sapiens, time 48 hrs
Description: Growth inhibition of human SK-MEL-5 cells measured after 48 hrs by sulforhodamine B assay

[5] = test system: HT-29; conditions: Homo sapiens, HT-29, 48 h, read-out: LC50
Description: Cytotoxicity activity against human HT-29 cells assessed as reduction in cell growth measured after 48 hrs by sulforhodamine B assay

[6] = test system: BT-549; type: functional; conditions: Homo sapiens, time 48 hrs
Description: Growth inhibition of human BT-549 cells measured after 48 hrs by sulforhodamine B assay

[7] = test system: EKVX; conditions: Homo sapiens, 48 h, read-out: LC50
Description: Cytotoxicity activity against human EKVX cells assessed as reduction in cell growth measured after 48 hrs by sulforhodamine B assay

[8] = test system: MDA-MB-435; conditions: Homo sapiens, MDA-MB-435, 48 h, read-out: LC50
Description: Cytotoxicity activity against human MDA-MB-435 cells assessed as reduction in cell growth measured after 48 hrs by sulforhodamine B assay

[9] = test system: PC-3; conditions: Homo sapiens, PC-3, 48 h, read-out: LC50
Description: Cytotoxicity activity against human PC-3 cells assessed as reduction in cell growth measured after 48 hrs by sulforhodamine B assay

[10] = test system: SK-MEL-2; type: functional; conditions: Homo sapiens, time 48 hrs
Description: Growth inhibition of human SK-MEL-2 cells measured after 48 hrs by sulforhodamine B assay

[11] = test system: PC-3; type: functional; conditions: Homo sapiens, time 48 hrs
Description: Cytostatic activity against human PC-3 cells assessed as total growth inhibition measured after 48 hrs by sulforhodamine B assay

[12] = test system: IGROV-1; type: functional; conditions: Homo sapiens, time 48 hrs
Description: Growth inhibition of human IGROV-1 cells measured after 48 hrs by sulforhodamine B assay

[13] = test system: HOP-92; conditions: Homo sapiens, HOP-92, 48 h, read-out: LC50
Description: Cytotoxicity activity against human HOP-92 cells assessed as reduction in cell growth measured after 48 hrs by sulforhodamine B assay

[14] = test system: OVCAR-8; type: functional; conditions: Homo sapiens, time 48 hrs
Description: Cytostatic activity against human OVCAR-8 cells assessed as total growth inhibition measured after 48 hrs by sulforhodamine B assay

[15] = test system: NCI-H460; conditions: Homo sapiens, NCI-H460, 48 h, read-out: LC50
Description: Cytotoxicity activity against human NCI-H460 cells assessed as reduction in cell growth measured after 48 hrs by sulforhodamine B assay

[16] = test system: NCI-H522; conditions: Homo sapiens, NCI-H522, 48 h, read-out: LC50
Description: Cytotoxicity activity against human NCI-H522 cells assessed as reduction in cell growth measured after 48 hrs by sulforhodamine B assay

[17] = test system: NCI-H322M; type: functional; conditions: Homo sapiens, time 48 hrs
Description: Growth inhibition of human NCI-H322M cells measured after 48 hrs by sulforhodamine B assay

[18] = test system: Malme-3M; type: functional; conditions: Homo sapiens, time 48 hrs
[19] = test system: U-251; type: functional; conditions: Homo sapiens, time 48 hrs
Description: Growth inhibition of human U-251 cells measured after 48 hrs by sulforhodamine B assay

[20] = test system: NCI-H322M; conditions: Homo sapiens, 48 h, read-out: LC50
Description: Cytotoxicity activity against human NCI-H322M cells assessed as reduction in cell growth measured after 48 hrs by sulforhodamine B assay

[21] = test system: SK-OV-3; conditions: Homo sapiens, SK-OV-3, 48 h, read-out: LC50
Description: Cytotoxicity activity against human SK-OV-3 cells assessed as reduction in cell growth measured after 48 hrs by sulforhodamine B assay

[22] = test system: OVCAR-8; type: functional; conditions: Homo sapiens, time 48 hrs; remark: listed apart in the source
Description: Growth inhibition of human OVCAR-8 cells measured after 48 hrs by sulforhodamine B assay

[23] = test system: SW-620; type: functional; conditions: Homo sapiens, time 48 hrs
Description: Growth inhibition of human SW620 cells measured after 48 hrs by sulforhodamine B assay

[24] = test system: DU-145; conditions: Homo sapiens, DU-145, 48 h, read-out: LC50
Description: Cytotoxicity activity against human DU-145 cells assessed as reduction in cell growth measured after 48 hrs by sulforhodamine B assay

[25] = test system: CCRF-CEM; conditions: Homo sapiens, 48 h, read-out: LC50
Description: Cytotoxicity activity against human CCRF-CEM cells assessed as reduction in cell growth measured after 48 hrs by sulforhodamine B assay

[26] = test system: Malme-3M; conditions: Homo sapiens, 48 h, read-out: LC50
Description: Cytotoxicity activity against human Malme-3M cells assessed as reduction in cell growth measured after 48 hrs by sulforhodamine B assay

[27] = test system: SK-MEL-28; type: functional; conditions: Homo sapiens, time 48 hrs
Description: Cytostatic activity against human SK-MEL-28 cells assessed as total growth inhibition measured after 48 hrs by sulforhodamine B assay

[28] = test system: 786-0; type: functional; conditions: Homo sapiens, time 48 hrs
Description: Cytostatic activity against human 786-0 cells assessed as total growth inhibition measured after 48 hrs by sulforhodamine B assay

[29] = test system: SF-539; type: functional; conditions: Homo sapiens, time 48 hrs
Description: Cytostatic activity against human SF-539 cells assessed as total growth inhibition measured after 48 hrs by sulforhodamine B assay

[30] = test system: MCF7; type: functional; conditions: Homo sapiens, time 48 hrs
Description: Cytostatic activity against human MCF7 cells assessed as total growth inhibition measured after 48 hrs by sulforhodamine B assay

[31] = test system: RPMI-8226; type: functional; conditions: Homo sapiens, time 48 hrs
Description: Cytostatic activity against human RPMI-8226 cells assessed as total growth inhibition measured after 48 hrs by sulforhodamine B assay

[32] = test system: SF-539; type: functional; conditions: Homo sapiens, time 48 hrs; remark: listed apart in the source
Description: Growth inhibition of human SF-539 cells measured after 48 hrs by sulforhodamine B assay

[33] = test system: HT-29; type: functional; conditions: Homo sapiens, time 48 hrs
Description: Cytostatic activity against human HT-29 cells assessed as total growth inhibition measured after 48 hrs by sulforhodamine B assay

[34] = test system: NCI-H460; type: functional; conditions: Homo sapiens, time 48 hrs
Description: Growth inhibition of human NCI-H460 cells measured after 48 hrs by sulforhodamine B assay

[35] = test system: SN12C; type: functional; conditions: Homo sapiens, time 48 hrs
Description: Cytostatic activity against human SN12C cells assessed as total growth inhibition measured after 48 hrs by sulforhodamine B assay

[36] = test system: OVCAR-4; conditions: Homo sapiens, OVCAR-4, 48 h, read-out: LC50
Description: Cytotoxicity activity against human OVCAR-4 cells assessed as reduction in cell growth measured after 48 hrs by sulforhodamine B assay

[37] = test system: CCRF-CEM; type: functional; conditions: Homo sapiens, time 48 hrs
Description: Growth inhibition of human CCRF-CEM cells measured after 48 hrs by sulforhodamine B assay

[38] = test system: OVCAR-3; conditions: Homo sapiens, OVCAR-3, 48 h, read-out: LC50
Description: Cytotoxicity activity against human OVCAR-3 cells assessed as reduction in cell growth measured after 48 hrs by sulforhodamine B assay

[39] = test system: SNB-75; type: functional; conditions: Homo sapiens, time 48 hrs
Description: Growth inhibition of human SNB-75 cells measured after 48 hrs by sulforhodamine B assay

[40] = test system: CCRF-CEM; type: functional; conditions: Homo sapiens, time 48 hrs; remark: listed apart in the source
Description: Cytostatic activity against human CCRF-CEM cells assessed as total growth inhibition measured after 48 hrs by sulforhodamine B assay

[41] = test system: K562; type: functional; conditions: Homo sapiens, time 48 hrs
Description: Growth inhibition of human K562 cells measured after 48 hrs by sulforhodamine B assay

[42] = test system: SK-OV-3; type: functional; conditions: Homo sapiens, time 48 hrs
Description: Cytostatic activity against human SK-OV-3 cells assessed as total growth inhibition measured after 48 hrs by sulforhodamine B assay

[43] = test system: HOP-62; conditions: Homo sapiens, HOP-62, 48 h, read-out: LC50
Description: Cytotoxicity activity against human HOP-62 cells assessed as reduction in cell growth measured after 48 hrs by sulforhodamine B assay

[44] = test system: NCI-H322M; type: functional; conditions: Homo sapiens, time 48 hrs; remark: listed apart in the source
Description: Cytostatic activity against human NCI-H322M cells assessed as total growth inhibition measured after 48 hrs by sulforhodamine B assay

[45] = test system: SF-295; type: functional; conditions: Homo sapiens, time 48 hrs
Description: Cytostatic activity against human SF-295 cells assessed as total growth inhibition measured after 48 hrs by sulforhodamine B assay

[46] = test system: MCF7; conditions: Homo sapiens, MCF7, 48 h, read-out: LC50
Description: Cytotoxicity activity against human MCF7 cells assessed as reduction in cell growth measured after 48 hrs by sulforhodamine B assay

[47] = test system: SK-MEL-2; type: functional; conditions: Homo sapiens, time 48 hrs; remark: listed apart in the source
Description: Cytostatic activity against human SK-MEL-2 cells assessed as total growth inhibition measured after 48 hrs by sulforhodamine B assay

[48] = test system: SK-MEL-2; conditions: Homo sapiens, SK-MEL-2, 48 h, read-out: LC50
Description: Cytotoxicity activity against human SK-MEL-2 cells assessed as reduction in cell growth measured after 48 hrs by sulforhodamine B assay

[49] = test system: SN12C; type: functional; conditions: Homo sapiens, time 48 hrs; remark: listed apart in the source
Description: Growth inhibition of human SN12C cells measured after 48 hrs by sulforhodamine B assay

[50] = test system: M14; type: functional; conditions: Homo sapiens, time 48 hrs
Description: Cytostatic activity against human M14 cells assessed as total growth inhibition measured after 48 hrs by sulforhodamine B assay

[51] = test system: M14; conditions: Homo sapiens, M14, 48 h, read-out: LC50
Description: Cytotoxicity activity against human M14 cells assessed as reduction in cell growth measured after 48 hrs by sulforhodamine B assay

[52] = test system: SR; type: functional; conditions: Homo sapiens, time 48 hrs
Description: Cytostatic activity against human SR cells assessed as total growth inhibition measured after 48 hrs by sulforhodamine B assay

Compound: CCOC(=O)c1ccc(N/N=C/c2cn(-c3ccc(S(N)(=O)=O)cc3)nc2-c2ccc(C)cc2)cc1
- TGI [1]: > 100 µM
- GI50 [2]: 2940 nM
- TGI [3]: 16 µM
- GI50 [4]: 2990 nM
- CC50 [5]: > 100 µM
- GI50 [6]: 10.8 µM
- CC50 [7]: > 100 µM
- CC50 [8]: 70.2 µM
- CC50 [9]: > 100 µM
- GI50 [10]: 11.8 µM
- TGI [11]: 38.1 µM
- GI50 [12]: 5.13 µM
- CC50 [13]: > 100 µM
- TGI [14]: > 100 µM
- CC50 [15]: > 100 µM
- CC50 [16]: > 100 µM
- GI50 [17]: 5.38 µM
- GI50 [18]: 7.32 µM
- GI50 [19]: 4.23 µM
- CC50 [20]: > 100 µM
- CC50 [21]: > 100 µM
- GI50 [22]: 5.68 µM
- GI50 [23]: 3.66 µM
- CC50 [24]: > 100 µM
- CC50 [25]: > 100 µM
- CC50 [26]: 62.5 µM
- TGI [27]: 19.6 µM
- TGI [28]: 5.74 µM
- TGI [29]: 8.03 µM
- TGI [30]: 7.77 µM
- TGI [31]: 3.24 µM
- GI50 [32]: 2550 nM
- TGI [33]: 8.38 µM
- GI50 [34]: 2430 nM
- TGI [35]: 58.6 µM
- CC50 [36]: > 100 µM
- GI50 [37]: 3.82 µM
- CC50 [38]: 62.6 µM
- GI50 [39]: 10.1 µM
- TGI [40]: 57.4 µM
- GI50 [41]: 2880 nM
- TGI [42]: > 100 µM
- CC50 [43]: > 100 µM
- TGI [44]: 5.38 µM
- TGI [45]: 24.8 µM
- CC50 [46]: > 100 µM
- TGI [47]: 40.6 µM
- CC50 [48]: > 100 µM
- GI50 [49]: 16 µM
- TGI [50]: 3.57 µM
- CC50 [51]: 7.31 µM
- TGI [52]: 2650 nM
